According to US11028077B2, “Crystalline pharmaceutical and methods of preparation and use thereof” (NOVARTIS PHARMACEUTICALS CORPORATION, priority 2008, dated 2021):
Values joined by “and” are separate entries in the source; they are usually repeats but may differ in a detail not shown here. Identical values can stand only once.

How the values were obtained:
[1] = system: Keratoconjunctivitis Sicca (KCS); assay: Canine keratoconjunctivitis sicca (KCS) study; assay type: in vivo, dog
Excerpt: If dogs had been treated with topical CsA or tacrolimus in the previous six months, they were not enrolled. […] Animals were subjected to an ocular examination once during the initial visit and during five visits over sixteen weeks of the study (Weeks, 2, 4, 8, 12 and 16). The last OE was approximately four weeks after the last dose of the compound of Formula I and after one month of CsA treatment. The adnexa and anterior portions of both eyes were examined using an indirect opthalmoscope. The eyes were dilated with a mydriatic when applicable, to allow evaluation of the lens and fundus, including the retina. An evaluation using a modified McDonald-Shaddock scoring system was performed in conjunction with the slitlamp ocular examinations at each interval. Tears were measured using STT strips during the initial visit and each of the five follow-up visits on Weeks 2, 4, 8, 12 and 16. One strip of STT paper was used for each eye for each interval. […] The length, in mm, of wetting below the notch of the paper was recorded. Fluorescein and rose bengal staining was performed at the each of the initial and follow up examinations. Intraocular pressure measurements (IOPs) were performed using a Tono-Pet Vet® in conjunction with each of the OEs. Digital ocular images were taken before and after staining (with fluorescein and rose bengal) during each of the OEs. Conjunctival biopsies were taken at the initial (pretreatment) visit and the Week 12 visit. The second biopsy was taken more lateral (approx. 1 mm) to the initial biopsy. Following appropriate preparation a small conjunctival biopsy was taken from the ventral fornix of each eye.

[2] = system: SEB stimulated IL-2 release in whole human blood; assay: cells; assay type: cell-based; settings: read-out: IC50, inhibition of SEB stimulated IL-2 release
[3] = system: Chinese hamster ovary (CHO) cells; assay: In vitro chromosomal aberration assay in CHO cells; assay type: cell-based; settings: with and without metabolic activation; except single toxic dose 3500 μg/mL without activation
Excerpt: The biological relevance of this response is equivocal due to cytotoxicity.

[4] = system: CD-1 (ICR) BR mice; assay: In vivo mouse bone marrow micronucleus assay; settings: repeated IV administrations
[5] = system: rabbits; assay: Single dose ocular tolerance in rabbits; assay type: in vivo, rabbit; settings: rabbits (10%)
[6] = Single dose ocular and IV ADME study with [14C]-compound in rats, quantitative whole body autoradiography; assay type: in vivo, rat; settings: tissue distribution in pigmented vs albino rats
[7] = system: dogs; assay: Pilot ocular tolerance / PK of topically administered compound in dogs; assay type: in vivo, dog; settings: up to 10% strength at 3 doses/day
[8] = Solubility studies; assay type: physicochemical
[9] = Skin transport studies on microtomed human skin; assay type: in vitro ADME; settings: 1% (w/w) prototypes; [^14C]-compound
Excerpt: Prototypes have been developed and tested on microtomed human skin from elective surgery at 1% (w/w). The forms include gels, ointment, or lotion. […]

[10] = rabbit, in vivo, topical or ocular, 0.35 mg
[11] = Plasma PK after single topical ocular instillation (dogs and rabbits); settings: baseline levels by about 4 hours

CS(=O)(=O)c1cccc(C[C@H](NC(=O)c2c(Cl)cc3c(c2Cl)CCN(C(=O)c2ccc4ccoc4c2)C3)C(=O)O)c1 [compound of Formula I]
Schirmer Tear Test (OS), individual dogs ([1]; Week 1, left eye, 1% solution, 0.35 mg/eye TID): 9 mm (2×) and 0 mm (3×) and 7 mm | Schirmer Tear Test (OD), individual dogs ([1]; Week 1, right eye, 1% solution, 0.35 mg/eye TID): 8 mm (2×) and 6 mm (2×) and 0 mm and 5 mm | Schirmer Tear Test (OS), individual dogs ([1]; Week 2, left eye, 1% solution TID): 4 mm and 0 mm (2×) and 14 mm and 3 mm and 8 mm | Schirmer Tear Test (OD), individual dogs ([1]; Week 2, right eye, 1% solution TID): 10 mm and 2 mm (2×) and 11 mm (3×) | Schirmer Tear Test (OS), individual dogs ([1]; Week 4, left eye, 1% solution TID): 14 mm (2×) and 0 mm (2×) and 7 mm and 5 mm | Schirmer Tear Test (OD), individual dogs ([1]; Week 4, right eye, 1% solution TID): 15 mm and 2 mm and 0 mm and 5 mm and 10 mm (2×) | Schirmer Tear Test (OS), individual dogs ([1]; Week 8, left eye, 1% solution TID): 8 mm (2×) and 0 mm and 2 mm and 17 mm and 6 mm | Schirmer Tear Test (OD), individual dogs ([1]; Week 8, right eye, 1% solution TID): 17 mm and 1 mm and 8 mm and 7 mm (2×) and 11 mm | Schirmer Tear Test (OS), individual dogs ([1]; Week 12, left eye, 1% solution TID): 8 mm (2×) and 3 mm and 7 mm and 15 mm and 4 mm | Schirmer Tear Test (OD), individual dogs ([1]; Week 12, right eye, 1% solution TID): 16 mm and 0 mm and 8 mm and 7 mm and 13 mm and 9 mm | Schirmer Tear Test (OS), individual dogs ([1]; Week 16, left eye, four weeks after last dose and after one month of CsA 0.2% ointment): 17 mm and 3 mm and 5 mm and 16 mm and 7 mm and 19 mm | Schirmer Tear Test (OD), individual dogs ([1]; Week 16, right eye, four weeks after last dose and after one month of CsA 0.2% ointment): 18 mm and 12 mm and 8 mm (3×) and 22** mm | Maximum-Minimum Analysis, maximal change in STT, OS, individual dogs ([1]; Weeks 1-12, left eye): 7 mm (2×) and 11 mm and 3 mm and 10 mm and 6 mm | Maximum-Minimum Analysis, maximal change in STT, OD, individual dogs ([1]; Weeks 1-12, right eye): 3 mm and 8 mm (3×) and −4 mm and 5 mm | average improvement in STT, all 12 eyes ([1]; during the treatment period (12 weeks)): 4 mm | Histopathological evaluation of conjunctival biopsies taken before and after treatment ([1]; pretreatment vs Week 12): attenuation of lymphocyte accumulation | mean change in Schirmer test score over pretreatment ([1]; week 12): Significant improvement | IC50 [2]: 69 nM | induction of structural chromosomal aberrations [3]: negative for inducing structural chromosomal aberrations | micronuclei in polychromatic erythrocytes [4]: negative | NOAEL [5]: 3.5 mg/eye/3× per day | binding to melanin [6]: did not preferentially bind to melanin | ocular safety and tolerability [7]: safe and well tolerated | solubility ([8]; ethanol/glycol/transcutol solution): 10 % (w/w) | solubility ([8]; water/glycol/transcutol solution): 2 % (w/w) | concentration in dermis [9]: greater than 10 micromolar | dose penetration [9]: 2-4% | Mean tear AUC [10]: 18931 ng·h/mL | time of maximum plasma concentration post-dose [11]: about 0.25 hrs
